Results as given in patent US20220135591A1, “HETEROCYCLIC COMPOUNDS AS INHIBITORS OF MONOACYLGLYCEROL LIPASE (MAGL)” (Hoffmann-La Roche Inc., priority 2019, published 2022).
pIC50: −log10 of the molar value.

target: T1, MAGL (recombinant wild-type) (Homo sapiens, UniProt Q99685); assay: 4-NPA assay: MAGL inhibitory activity by hydrolysis of 4-nitrophenylacetate, absorbance at 405 nm; assay type: biochemical; conditions: 4-NPA assay (values without footnote [b])
T1 sequence (Q99685 1-303): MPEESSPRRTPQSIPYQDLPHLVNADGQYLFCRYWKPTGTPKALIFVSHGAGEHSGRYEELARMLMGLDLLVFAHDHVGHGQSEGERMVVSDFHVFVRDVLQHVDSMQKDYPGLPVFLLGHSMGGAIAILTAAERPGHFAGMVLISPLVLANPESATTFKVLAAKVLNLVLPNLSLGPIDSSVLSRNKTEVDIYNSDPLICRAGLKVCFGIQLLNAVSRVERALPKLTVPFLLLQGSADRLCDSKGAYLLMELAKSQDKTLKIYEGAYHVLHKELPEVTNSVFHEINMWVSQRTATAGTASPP
Outline: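 Final assay: 1 nM MAGL and 300 μM 4-nitrophenylacetate in 50 mM Tris, 1 mM EDTA, at RT. Compounds (25 μM–1.7 nM, 3-fold steps) were preincubated 15 min with enzyme. A405 was read 5 min after substrate addition and again after 80 min; activity was taken as the difference between reads.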

Going from Cc1ccc2oc(N3CCN(C(=O)c4ccc(N5CC(OC(C)C(F)(F)F)C5)nc4)CC3)nc2n1 (stereo not shown) [Example 214, (4-(5-methyloxazolo[4,5-b]pyridin-2-yl)piperazin-1-yl)(6-(3-((1,1,1-trifluoropropan-2-yl)oxy)azetidin-1-yl)pyridin-3-yl)methanone] to Cc1ccc2oc(N3CCN(C(=O)c4cnc(N5CC(OC(C)C(F)(F)F)C5)cc4C)CC3)nc2n1 (stereo not shown) [Example 220, (4-methyl-6-(3-((1,1,1-trifluoropropan-2-yl)oxy)azetidin-1-yl)pyridin-3-yl)(4-(5-methyloxazolo[4,5-b]pyridin-2-yl)piperazin-1-yl)methanone], the pIC50 falls from 6.77 to 5.40 (1.37 log units). The first is the more potent here.

Going from CCC(C)(C)OC1CN(c2ccc(C(=O)N3CCN(c4nc5nc(C)ccc5o4)CC3)cn2)C1 [Example 215, (4-(5-methyloxazolo[4,5-b]pyridin-2-yl)piperazin-1-yl)(6-(3-(tert-pentyloxy)azetidin-1-yl)pyridin-3-yl)methanone] to Cc1ccc2oc(N3CCN(C(=O)c4cnc(N5CC(OC(C)C(F)(F)F)C5)c(C)c4)CC3)nc2n1 (stereo not shown) [Example 216, (5-methyl-6-(3-((1,1,1-trifluoropropan-2-yl)oxy)azetidin-1-yl)pyridin-3-yl)(4-(5-methyloxazolo[4,5-b]pyridin-2-yl)piperazin-1-yl)methanone], the pIC50 falls from 7.15 to 6.95 (0.20 log units). The first is the more potent here.

Going from Cc1ccc2oc(N3CCN(C(=O)c4cnc(N5CC(OC(C)C(F)(F)F)C5)c(F)c4Cl)CC3)nc2n1 (stereo not shown) [Example 217, (4-chloro-5-fluoro-6-(3-((1,1,1-trifluoropropan-2-yl)oxy)azetidin-1-yl)pyridin-3-yl)(4-(5-methyloxazolo[4,5-b]pyridin-2-yl)piperazin-1-yl)methanone] to Cc1ccc2oc(N3CCN(C(=O)c4cnc(N5CC(OC(C)C(F)(F)F)C5)c(F)c4)CC3)nc2n1 (stereo not shown) [Example 224, (5-fluoro-6-(3-((1,1,1-trifluoropropan-2-yl)oxy)azetidin-1-yl)pyridin-3-yl)(4-(5-methyloxazolo[4,5-b]pyridin-2-yl)piperazin-1-yl)methanone], the pIC50 rises from 6.78 to 7.05 (0.27 log units). The second is the more potent here.

First: Cc1ccc2oc(N3CCN(C(=O)c4ccc(N5CC(OC(C)C(F)(F)F)C5)nn4)CC3)nc2n1 (stereo not shown) [Example 218, (4-(5-methyloxazolo[4,5-b]pyridin-2-yl)piperazin-1-yl)(6-(3-((1,1,1-trifluoropropan-2-yl)oxy)azetidin-1-yl)pyridazin-3-yl)methanone]
Second: Cc1ccc2oc(N3CCN(C(=O)c4cnc(N5CC(OC(C)C(F)(F)F)C5)nc4)CC3)nc2n1 (stereo not shown) [Example 219, (4-(5-methyloxazolo[4,5-b]pyridin-2-yl)piperazin-1-yl)(2-(3-((1,1,1-trifluoropropan-2-yl)oxy)azetidin-1-yl)pyrimidin-5-yl)methanone]
The pIC50 of the first is 0.85 log units lower: 5.81 for the first, 6.66 for the second. The second is the more potent here.

Compared with Cc1ccc2oc(N3CCN(C(=O)c4cnc(N5CC6(CCC6(F)F)C5)cc4C)CC3)nc2n1 [Example 221, (6-(5,5-difluoro-2-azaspiro[3.3]heptan-2-yl)-4-methylpyridin-3-yl)(4-(5-methyloxazolo[4,5-b]pyridin-2-yl)piperazin-1-yl)methanone], Cc1ccc2oc(N3CCN(C(=O)c4cnc(N5CCC6(C5)CC6(F)F)cc4C)CC3)nc2n1 (stereo not shown) [Example 223, (6-(1,1-difluoro-5-azaspiro[2.4]heptan-5-yl)-4-methylpyridin-3-yl)(4-(5-methyloxazolo[4,5-b]pyridin-2-yl)piperazin-1-yl)methanone] is 0.47 log units higher in pIC50: 4.88 for the first, 5.35 for the second.

First: Cc1ccc2oc(N3CCN(C(=O)c4cnc(N5CCC6(C5)CC6(F)F)nc4)CC3)nc2n1 (stereo not shown) [Example 222, (2-(1,1-difluoro-5-azaspiro[2.4]heptan-5-yl)pyrimidin-5-yl)(4-(5-methyloxazolo[4,5-b]pyridin-2-yl)piperazin-1-yl)methanone]
Second: Cc1ccc2oc(N3CCN(C(=O)c4cnc(N5CCC6(C5)CC6(F)F)c(C)c4)CC3)nc2n1 (stereo not shown) [Example 225, (6-(1,1-difluoro-5-azaspiro[2.4]heptan-5-yl)-5-methylpyridin-3-yl)(4-(5-methyloxazolo[4,5-b]pyridin-2-yl)piperazin-1-yl)methanone]
The pIC50 of the first is 0.51 log units lower: 6.10 for the first, 6.61 for the second. The second is the more potent here.

Cc1ccc2oc(N3CCN(C(=O)c4cnc(N5CC(OC(C)C(F)(F)F)C5)c(Cl)c4)CC3)nc2n1 (stereo not shown) [Example 226, (5-chloro-6-(3-((1,1,1-trifluoropropan-2-yl)oxy)azetidin-1-yl)pyridin-3-yl)(4-(5-methyloxazolo[4,5-b]pyridin-2-yl)piperazin-1-yl)methanone] and CC(OC1CN(c2ncc(C(=O)N3CCN(c4nc5nc(Cl)ccc5o4)CC3)cc2F)C1)C(F)(F)F (stereo not shown) [Example 229, (4-(5-chlorooxazolo[4,5-b]pyridin-2-yl)piperazin-1-yl)(5-fluoro-6-(3-((1,1,1-trifluoropropan-2-yl)oxy)azetidin-1-yl)pyridin-3-yl)methanone] are within 0.2 log units of each other in pIC50: 7.42 for the first, 7.46 for the second.

Compared with Cc1ccc2oc(N3CCN(C(=O)c4cnc(N5CCC6(C5)CC6(F)F)c(Cl)c4)CC3)nc2n1 (stereo not shown) [Example 227, (5-chloro-6-(1,1-difluoro-5-azaspiro[2.4]heptan-5-yl)pyridin-3-yl)(4-(5-methyloxazolo[4,5-b]pyridin-2-yl)piperazin-1-yl)methanone], Cc1ccc2oc(N3CCN(C(=O)c4cnc(N5CCC6(C5)CC6(F)F)c(F)c4)CC3)nc2n1 (stereo not shown) [Example 228, (6-(1,1-difluoro-5-azaspiro[2.4]heptan-5-yl)-5-fluoropyridin-3-yl)(4-(5-methyloxazolo[4,5-b]pyridin-2-yl)piperazin-1-yl)methanone] is 0.39 log units lower in pIC50: 7.21 for the first, 6.82 for the second.

O=C(c1cnc(N2CCC3(C2)CC3(F)F)c(F)c1)N1CCN(c2nc3nc(Cl)ccc3o2)CC1 (stereo not shown) [Example 230, (4-(5-chlorooxazolo[4,5-b]pyridin-2-yl)piperazin-1-yl)(6-(1,1-difluoro-5-azaspiro[2.4]heptan-5-yl)-5-fluoropyridin-3-yl)methanone] and CC(F)(F)Cc1nc(-c2ccc(C(=O)N3CCN(c4nc5nc(Cl)ccc5o4)CC3)cc2)no1 [Example 262, [4-(5-chlorooxazolo[4,5-b]pyridin-2-yl)piperazin-1-yl]-[4-[5-(2,2-difluoropropyl)-1,2,4-oxadiazol-3-yl]phenyl]methanone] are within 0.2 log units of each other in pIC50: 7.25 for the first, 7.19 for the second.

Going from CC(C)(C)Cc1nc(-c2ccc(C(=O)N3CCN(c4nc5nc(C#N)ccc5o4)CC3)cc2)no1 [Example 260, 2-(4-(4-(5-neopentyl-1,2,4-oxadiazol-3-yl)benzoyl)piperazin-1-yl)oxazolo[4,5-b]pyridine-5-carbonitrile] to CC(C)(C)Cc1nc(-c2ccc(C(=O)N3CCN(c4nc5nc(C(F)(F)F)ccc5o4)CC3)cc2)no1 [Example 261, (4-(5-neopentyl-1,2,4-oxadiazol-3-yl)phenyl)(4-(5-(trifluoromethyl)oxazolo[4,5-b]pyridin-2-yl)piperazin-1-yl)methanone], the pIC50 rises from 6.52 to 7.40 (0.88 log units). The second is the more potent here.

Compared with CCCCc1nc2ccc(C(=O)N3CCN(c4nc5nc(C)ccc5o4)CC3)cc2o1 [Example 263, (2-butyl-1,3-benzoxazol-6-yl)-[4-(5-methyloxazolo[4,5-b]pyridin-2-yl)piperazin-1-yl]methanone], CC(C)(F)Cc1nc(-c2ccc(C(=O)N3CCN(c4nc5nc(Cl)ccc5o4)CC3)cc2)no1 [Example 264, [4-(5-chlorooxazolo[4,5-b]pyridin-2-yl)piperazin-1-yl]-[4-[5-(2-fluoro-2-methyl-propyl)-1,2,4-oxadiazol-3-yl]phenyl]methanone] is 0.49 log units higher in pIC50: 6.74 for the first, 7.23 for the second. The second is the more potent here.

Going from C=C(C)Cc1nc(-c2ccc(C(=O)N3CCN(c4nc5nc(Cl)ccc5o4)CC3)cc2)no1 [Example 265, [4-(5-chlorooxazolo[4,5-b]pyridin-2-yl)piperazin-1-yl]-[4-[5-(2-methylallyl)-1,2,4-oxadiazol-3-yl]phenyl]methanone] to CC(C)=Cc1nc(-c2ccc(C(=O)N3CCN(c4nc5nc(Cl)ccc5o4)CC3)cc2)no1 [Example 266, [4-(5-chlorooxazolo[4,5-b]pyridin-2-yl)piperazin-1-yl]-[4-[5-(2-methylprop-1-enyl)-1,2,4-oxadiazol-3-yl]phenyl]methanone], the pIC50 falls from 7.52 to 7.00 (0.52 log units).

For Cc1ccc2oc(N3CCN(C(=O)N4CC5(C4)CN(S(=O)(=O)c4cccc(Cl)c4)C5)CC3)nc2n1 [Example 305, [2-(3-chlorophenyl)sulfonyl-2,6-diazaspiro[3.3]heptan-6-yl]-[4-(5-methyloxazolo[4,5-b]pyridin-2-yl)piperazin-1-yl]methanone], the pIC50 was 5.62.
